# Experimental data taken from Sander's compilation of Henry's law constants (doi:10.1021/je970046g).
# Experiment: Henry solubility constant Hcp at 293 K (mol/(m3 Pa))
# Settings: reference: Hovorka and Dohnal (1997)
row,Structure (SMILES),Henry solubility constant Hcp at 293 K
1,"ClC(Cl)C(Cl)Cl [1,1,2,2-tetrachloroethane]",0.03
2,"CC(Cl)CCl (centres undefined) [1,2-dichloropropane]",0.0046
3,ClC(Cl)=C(Cl)Cl [tetrachloroethene],0.00084
4,ClCc1ccccc1 [(chloromethyl)-benzene],0.028
5,BrC(Br)Br [tribromomethane],0.023
6,BrCBr [dibromomethane],0.015
7,"CC(Cl)(Cl)Cl [1,1,1-trichloroethane]",0.00079
8,ClC=C(Cl)Cl [trichloroethene],0.0013
9,"Clc1cccc(Cl)c1 [1,3-dichlorobenzene]",0.0047
10,Clc1ccccc1 [chlorobenzene],0.0035
11,Brc1ccccc1 [bromobenzene],0.0061
12,"ClCC(Cl)Cl [1,1,2-trichloroethane]",0.015
13,"Clc1ccc(Cl)cc1 [1,4-dichlorobenzene]",0.0054
14,ClCCl [dichloromethane],0.0051
